Values quoted from earlier work as cited in patent US5424456A, “N-arylalkylderivatives of 2-aminomethyl-2,3-dihydro-1,4-benzodioxine and the process of preparation thereof” (Vyzkumny Ustav Pro Farmacii A Biochemii s.p., priority 1991, dated 1995).

Key:
[1] = compared to Verapamil; cited from earlier work
[2] = system: α-adrenergic receptors; conditions: cited from earlier work

In the case of `COc1ccc(CCN(C)CCCC(C#N)(c2ccccc2C)C(C)C)cc1OC` (centres unmarked) [Mepamil], the negative inotropic activity [1] is listed as “lower negative inotropic activity”.

In the case of `c1ccc2c(c1)OCC(CN1CCCCC1)O2` (centres unmarked) [Piperoxan], the α-adrenergic receptor blocking [2] is listed as “block the α-adrenergic receptors in a competitive manner”.
